The source of these data is ChEMBL document CHEMBL5729022, “Modulators of methyl modifying enzymes, compositions and uses thereof” (2022).

The assay is described as follows: Biochemical Assay: EZH2 biochemical assay (IC50): Compound potencies were assessed through incorporation of 3H-SAM into a biotinylated H3 peptide. Specifically, 30 pM PRC2 containing wt EZH2 (pentameric complex prepared in-house) was pre-incubated with 450 nM SAM, 450 nM 3H-SAM, 2 μM H3K27me3 activating peptide (H2N-RKQLATKAAR(Kme3)SAPATGGVKKP-amide) and compounds (as 10 point duplicate dose response titrations in DMSO, final assay 0.8% DMSO (v/v)) for 3-5 h in 50 mM Tris (pH 8.5), 1 mM DTT, 0.07 mM Brij-35, 0.1% BSA, and 0.8% DMSO in a total volume of 12.5 μl. Reaction was initiated with biotinylated H3 substrate peptide (H2N-RKQLATKAAR(Kmel)SAPATGGVKKP-NTPEGBiot) as a 2 μM stock in 12.5 μl of buffer and allowed to react at room temperature for 18-22 h. Quenching was accomplished by addition of 20 μl of STOP solution (50 mM Tris (pH 8.5), 200 mM EDTA, 2 mM SAH). 35 μl of the quenched solution was transferred to streptavidin coated FlashPlates (PerkinElmer), incubated 1-2 h, washed, and read in a TopCount Reader (PerkinElmer). IC50s were calculated in Genedata Screener using non-linear least square four parameter fits, where the four parameters were IC50, Hill slope, pre-transitional baseline (0% INH), and post-transitional baseline (100% INH).

In general, IC50 refers to the concentration at which inhibition is half-maximal. For the compound `Cc1cc(Cl)c(CNC(=O)c2cc(Cl)c3c(c2C)OC(C)(C2CCN(CC(F)(F)F)CC2)O3)c(=O)[nH]1` (single isomer, unassigned), the IC50 is greater than 10 nM.
